Where two headings read alike, the source gives them in different places.
Columns and labels:
[1] = test system: Group II/III metabotropic glutamate receptors (mGluRs); assay: Cyclic AMP assay (ex vivo, forskolin-induced cAMP accumulation in rat cortical slices); type: cell-based, Sprague Dawley rat
Description: The assay of cyclic AMP formation can be performed as described previously (Tovey et al., Clinica Chimica Acta, 56, 221-234, 1974). The assay can be modelled on the cyclic AMP assay kit available from Amersham, which in turn, is based on the assay created by Tovey et al. Briefly, samples are prepared from Sprague Dawley rat (225-250 g) cortical slices. Slices are incubated with the drug, and then challenged with forskolin to induce cyclic AMP release. Following termination of the reaction by boiling, the slices are homogenized and centrifuged. Samples of supernatant are then incubated for 2-3 hours with a known quantity of [^3H]cAMP and a binding protein. […] The resulting supernatant (containing free cyclic AMP) is then analyzed by liquid scintillation counting. The amount of unbound cyclic AMP can be calculated from a standard curve previously determined with various samples of free cyclic AMP. […]
The assay has been modeled on the cyclic AMP assay kit available from Amersham. […] Samples of supernatant were then incubated for 2-3 hours with a known quantity of [^3H]cAMP and a binding protein. […] The resulting supernatant (containing free cyclic AMP) was then analyzed by liquid scintillation counting. The amount of unbound cyclic AMP was calculated from a standard curve previously determined with various samples of free cyclic AMP. […]

[2] = test system: Group I metabotropic glutamate receptors (mGluRs); assay: Phosphatidylinositol assay (ex vivo, inositol phosphate accumulation in neonatal rat tissue slices); type: cell-based, Sprague Dawley rat; conditions: antagonist, versus ACPD, 45 minutes
Description: Briefly, cross-chopped slices are prepared from neonatal Sprague Dawley rat tissue (age: p7-p14). The slices are pre-labelled with [^3H] myo-inositol. Following pre-labelling, the slices are incubated with the test drugs and standard (known Group I agonists i.e. ACPD) for a period of 45 minutes. The incubation is terminated by the addition of chloroform/methanol/HCl (100:200:2). The resulting mixture is separated into two phases by the addition of chloroform and distilled water. The aqueous fraction is applied to ion exchange columns, and inositol phosphates are eluted using 800 mM Ammonium Formate/100 mM Formic Acid. The eluent is then analyzed using liquid scintillation counting. The amount of inositol phosphate accumulation is expressed as a percentage of that induced by ACPD.
Group I metabotropic glutamate receptors (mGluRs) are positively coupled on inositol phosphate metabolism. Agonists at these receptors lead to an increase in intracellular free inositol phosphates, while antagonists inhibit the increase in intracellular free inositol phosphate induced by standard agonists (i.e. ACPD).
Cross-chopped slices were prepared from neonatal Sprague Dawley rat tissue (age: p7-p14). […] The eluent was then analyzed using liquid scintillation counting. The amount of inositol phosphate accumulation was expressed as a percentage of that induced by ACPD. […]

Compound: N[C@@]1(C(=O)O)Cc2ccccc2[C@H]1CC(=O)O (relative stereo) [Cis-2 amino-2-carboxyindaneacetic acid (compound 8)]
- EC50 ([1]; antagonist, versus glutamate, read-out: Group II/III Antagonist EC50): 0.0012 µM
- EC50 [2]: 2.2 µM

Compound: N[C@]1(C(=O)O)Cc2ccccc2[C@H]1CC(=O)O (relative stereo) [Trans-2 amino-2-carboxyindaneacetic acid (compound 8)]
- EC50 ([1]; agonist, read-out: Group II/III Agonist EC50): 0.11 µM
- EC50 [2]: 1600 µM

From US7034055B1, “2-aminoindane analogs” (Prescient Neuropharma Inc., priority 1999, dated 2006)
